Patent US8247556B2, “Method for preparing 6-substituted-7-aza-indoles” (Amgen Inc., priority 2005, dated 2012)

Test system: VEGF-stimulated HUVEC proliferation (Human Umbilical Vein Endothelial cells)
Assay: HUVEC Proliferation Assay
Type: cell-based
Settings: VEGF 50 ng/mL, 72 h, CyQuant fluorescent dye, read-out: inhibited VEGF-stimulated HUVEC proliferation at a level
Procedure: Human Umbilical Vein Endothelial cells are purchased from Clonetics, Inc., as cryopreserved cells harvested from a pool of donors. These cells, at passage 1, are thawed and expanded in EBM-2 complete medium, until passage 2 or 3. The cells are trypsinized, washed in DMEM+10% FBS+antibiotics, and spun at 1000 rpm for 10 min. Prior to centrifugation of the cells, a small amount is collected for a cell count. After centrifugation, the medium is discarded, and the cells are resuspended in the appropriate volume of DMEM+10% FBS+antibiotics to achieve a concentration of 3×10^5 cells/mL. Another cell count is performed to confirm the cell concentration. The cells are diluted to 3×10^4 cells/mL in DMEM+10% FBS+antibiotics, and 100 μL of cells are added to a 96-well plate. The cells are incubated at 37° C. for 22 h.
Prior to the completion of the incubation period, compound dilutions are prepared. Five-point, five-fold serial dilutions are prepared in DMSO, at concentrations 400-fold greater than the final concentrations desired. 2.5 μL of each compound dilution are diluted further in a total of 1 mL DMEM+10% FBS+antibiotics (400× dilution). Medium containing 0.25% DMSO is also prepared for the 0 μM compound sample. At the 22 h time point, the medium is removed from the cells, and 100 μL of each compound dilution is added. The cells are incubated at 37° C. for 2-3 h.
During the compound pre-incubation period, the growth factors are diluted to the appropriate concentrations. Solutions of DMEM+10% FBS+antibiotics, containing either VEGF or bFGF at the following concentrations: 50, 10, 2, 0.4, 0.08, and 0 ng/mL are prepared. For the compound-treated cells, solutions of VEGF at 550 ng/mL or bFGF at 220 ng/mL for 50 ng/mL or 20 ng/mL final concentrations, respectively, are prepared since 10 μL of each will be added to the cells (110 μL final volume). At the appropriate time after adding the compounds, the growth factors are added. VEGF is added to one set of plates, while bFGF is added to another set of plates. For the growth factor control curves, the media on wells B4-G6 of plates 1 and 2 are replaced with media containing VEGF or bFGF at the varying concentrations (50-0 ng/mL). The cells are incubated at 37° C. for an additional 72 h.
At the completion of the 72 h incubation period, the medium is removed, and the cells are washed twice with PBS. After the second wash with PBS, the plates are tapped gently to remove excess PBS, and the cells are placed at −70° C. for at least 30 min. The cells are thawed and analyzed using the CyQuant fluorescent dye (Molecular Probes C-7026), following the manufacturer's recommendations. The plates are read on a Victor/Wallac 1420 workstation at 485 nm/530 nm (excitation/emission). Raw data are collected and analyzed using a 4-parameter fit equation in XLFit. IC50 values are then determined.

SMILES | IC50 [nM]
O=C(Nc1ccc(C(OC[C@@H]2CCCN2)(C(F)(F)F)C(F)(F)F)cc1)c1cccnc1NCc1ccnc2[nH]ccc12 [Example 20, (S)-2-((1H-pyrrolo[2,3-b]pyridin-4-yl)methylamino)-N-(4-(1,1,1,3,3,3-hexafluoro-2-(pyrrolidin-2-ylmethoxy)propan-2-yl)phenyl)nicotinamide] | < 500
CC(C)(C)c1ccc(NC(=O)c2cc(Cl)cnc2NCc2ccnc3[nH]ccc23)cc1 [Example 88, 5-chloro-N-(4-(1,1-dimethylethyl)phenyl)-2-((1H-pyrrolo[2,3-b]pyridin-4-ylmethyl)amino)-3-pyridinecarboxamide] | < 500
CN1CCC[C@H]1COc1cc(NC(=O)c2cccnc2NCc2ccnc3[nH]ccc23)cc(C(F)(F)F)c1 [Example 35, N-[3-{[(2S)-1-methylpyrrolidin-2-yl]methoxy}-5-(trifluoromethyl)phenyl]-2-[(1H-pyrrolo[2,3-b]pyridin-4-ylmethyl)amino]nicotinamide] | < 500
CC1(C)CCNc2cc(NC(=O)c3cccnc3NCc3ccnc4[nH]ncc34)ccc21 [Example 71, N-(4,4-Dimethyl-1,2,3,4-tetrahydro-7-quinolinyl)-2-((1H-pyrazolo[3,4-b]pyridin-4-ylmethyl)amino)-3-pyridinecarboxamide] | < 500
CC1Sc2ccc(NC(=O)c3cc(F)cnc3NCc3ccnc4[nH]ccc34)cc2NC1=O (stereo not drawn) [Example 108, 5-fluoro-N-(2-methyl-3-oxo-3,4-dihydro-2H-1,4-benzothiazin-6-yl)-2-((1H-pyrrolo[2,3-b]pyridin-4-ylmethyl)amino)-3-pyridinecarboxamide] | < 500
O=C(Nc1ccc(Cl)c(C(F)(F)F)c1)c1cc(F)cnc1NCc1ccnc2[nH]ncc12 [Example 119, N-(4-Chloro-3-(trifluoromethyl)phenyl)-5-fluoro-2-((1H-pyrazolo[3,4-b]pyridin-4-ylmethyl)amino)-3-pyridinecarboxamide] | < 500
O=C(Nc1ccc(C(F)(F)F)c(F)c1)c1cc(F)cnc1NCc1ccnc2[nH]ncc12 [Example 128, 5-Fluoro-N-(3-fluoro-4-(trifluoromethyl)phenyl)-2-((1H-pyrazolo[3,4-b]pyridin-4-ylmethyl)amino)-3-pyridinecarboxamide] | < 500
COC(c1ccc(NC(=O)c2cccnc2NCc2ccnc3[nH]ccc23)cc1)(C(F)(F)F)C(F)(F)F [Example 44, 2-[(1H-Pyrrolo[2,3-b]pyridin-4-ylmethyl)-amino]-N-[4-(2,2,2-trifluoro-1-methoxy-1-trifluoromethyl-ethyl)-phenyl]-nicotinamide] | < 500
CN1CCC(Cc2cc(NC(=O)c3cccnc3NCc3ccnc4[nH]ccc34)cc(C(F)(F)F)c2)CC1 [Example 58, N-[3-(1-Methyl-piperidin-4-ylmethyl)-5-trifluoromethyl-phenyl]-2-[(1H-pyrrolo[2,3-b]pyridin-4-ylmethyl)-amino]-nicotinamide] | < 500
O=C(Nc1ccc(C(F)(F)F)c(Cl)c1)c1cc(F)cnc1NCc1ccnc2[nH]ccc12 [Example 100, N-(3-chloro-4-(trifluoromethyl)phenyl)-5-fluoro-2-((1H-pyrrolo[2,3-b]pyridin-4-ylmethyl)amino)-3-pyridinecarboxamide] | < 500
CC(C)Oc1ccc(NC(=O)c2cc(F)cnc2NCc2ccnc3[nH]ncc23)cc1 [Example 124, 5-Fluoro-N-(4-((1-methylethyl)oxy)phenyl)-2-((1H-pyrazolo[3,4-b]pyridin-4-ylmethyl)amino)-3-pyridinecarboxamide] | < 500
O=C(Nc1ccc(Cl)c(C(F)(F)F)c1)c1cc(F)cnc1NCc1ccnc2[nH]ccc12 [Example 90, N-(4-chloro-3-(trifluoromethyl)phenyl)-5-fluoro-2-((1H-pyrrolo[2,3-b]pyridin-4-ylmethyl)amino)-3-pyridinecarboxamide] | < 500
CN(C)c1nc2cc(NC(=O)c3cc(F)cnc3NCc3ccnc4[nH]ccc34)ccc2s1 [Example 114, N-(2-(dimethylamino)-1,3-benzothiazol-5-yl)-5-fluoro-2-((1H-pyrrolo[2,3-b]pyridin-4-ylmethyl)amino)-3-pyridinecarboxamide] | < 500
CC1(C)CNCc2cc(NC(=O)c3cc(F)cnc3NCc3ccnc4[nH]ncc34)ccc21 [Example 129, N-(4,4-Dimethyl-1,2,3,4-tetrahydro-7-isoquinolinyl)-5-fluoro-2-((1H-pyrazolo[3,4-b]pyridin-4-ylmethyl)amino)-3-pyridinecarboxamide] | < 500
O=C(Nc1ccc(C(F)(F)C(F)(F)F)c(CN2CCNCC2)c1)c1cccnc1NCc1ccnc2[nH]ccc12 [Example 45, N-(4-Pentafluoroethyl-3-piperazin-1-ylmethyl-phenyl)-2-[(1H-pyrrolo[2,3-b]pyridin-4-ylmethyl)-amino]-nicotinamide] | < 500
O=C(Nc1cc(O[C@@H]2CCOC2)cc(C(F)(F)F)c1)c1cccnc1NCc1ccnc2[nH]ccc12 [Example 47, 2-[(1H-pyrrolo[2,3-b]pyridin-4-ylmethyl)amino]-N-[3-[(3R)-tetrahydrofuran-3-yloxy]-5-(trifluoromethyl)phenyl]nicotinamide] | < 500
CN1CCN(Cc2cc(NC(=O)c3cccnc3NCc3ccnc4[nH]ccc34)ccc2C(F)(F)C(F)(F)F)CC1 [Example 46, N-[3-(4-Methyl-piperazin-1-ylmethyl)-4-pentafluoroethyl-phenyl]-2-[(1H-pyrrolo[2,3-b]pyridin-4-ylmethyl)-amino]-nicotinamide] | < 500
Cc1nc2cc(NC(=O)c3ccc(F)nc3NCc3ccnc4[nH]ccc34)ccc2s1 [Example 37, 2-((1H-Pyrrolo[2,3-b]pyridin-4-yl)methylamino)-6-fluoro-N-(2-methylbenzo[d]thiazol-5-yl)nicotinamide] | < 500
Cc1ccc(NC(=O)c2cc(F)cnc2NCc2ccnc3[nH]ccc23)cc1 [Example 109, 5-fluoro-N-(4-methylphenyl)-2-((1H-pyrrolo[2,3-b]pyridin-4-ylmethyl)amino)-3-pyridinecarboxamide] | < 500
CC1(C)CNCc2cc(NC(=O)c3cccnc3NCc3ccnc4[nH]ccc34)cnc21 [Example 11] | < 500
O=C(Nc1cc(CCCN2CCCCC2)cc(C(F)(F)F)c1)c1cccnc1NCc1ccnc2[nH]ccc12 [Example 62, N-[3-(3-Piperidin-1-yl-propyl)-5-trifluoromethyl-phenyl]-2-[(1H-pyrrolo[2,3-b]pyridin-4-ylmethyl)-amino]-nicotinamide] | < 500
CC1(C)CNCc2cc(NC(=O)c3cccnc3NCc3ccnc4c3CCN4)ccc21 [Example 25, 2-[(2,3-Dihydro-1H-pyrrolo[2,3-b]pyridin-4-ylmethyl)amino]-N-(4,4-dimethyl-1,2,3,4-tetrahydroisoquinolin-7-yl)nicotinamide] | < 500
CC1(C)CCNc2cc(NC(=O)c3cccnc3NCc3ncnc4[nH]ccc34)ccc21 [Example 131, N-(4,4-Dimethyl-1,2,3,4-tetrahydro-7-quinolinyl)-2-((7H-pyrrolo[2,3-d]pyrimidin-4-ylmethyl)amino)-3-pyridinecarboxamide] | < 500
O=C(Nc1ccc2ncccc2c1)c1cccnc1NCc1ccnc2[nH]ccc12 [Example 53, 2-[(1H-Pyrrolo[2,3-b]pyridin-4-ylmethyl)-amino]-N-quinolin-6-yl-nicotinamide] | < 500
Cc1ccc(NC(=O)c2cc(F)cnc2NCc2ccnc3[nH]ccc23)cc1F [Example 111, 5-fluoro-N-(3-fluoro-4-methylphenyl)-2-((1H-pyrrolo[2,3-b]pyridin-4-ylmethyl)amino)-3-pyridinecarboxamide] | < 500
O=C(Nc1ccc(C(F)(F)F)c(OCC2CCCO2)c1)c1cccnc1NCc1ccnc2[nH]ccc12 (stereo not drawn) [Example 57, 2-[(1H-Pyrrolo[2,3-b]pyridin-4-ylmethyl)-amino]-N-[3-(tetrahydro-furan-2-ylmethoxy)-4-trifluoromethyl-phenyl]-nicotinamide] | < 500
O=C(Nc1cccc(C(OC[C@@H]2CCCN2)(C(F)(F)F)C(F)(F)F)c1)c1cccnc1NCc1ccnc2[nH]ccc12 [Example 19, (S)-2-((1H-pyrrolo[2,3-b]pyridin-4-yl)methylamino)-N-(3-(1,1,1,3,3,3-hexafluoro-2-(pyrrolidin-2-ylmethoxy)propan-2-yl)phenyl)nicotinamide] | < 500
